Experimental findings from US9321742B2, “N1-cyclic amine-N5-substituted biguanide derivatives, methods of preparing the same and pharmaceutical composition comprising the same” (IMMUNOMET THERAPEUTICS INC., priority 2011, dated 2016) are described below.

The term melting point denotes the temperature of the solid-liquid transition. A word on the inhibition: it is how much of the control response was suppressed. One may read the GI50 as the concentration giving 50% growth inhibition.

One data set relates to AMPKα. The data set is described as follows: Measurement of AMPK-activation effect (AMPKα Thr172 phosphorylation immunoassay in MCF7 cells). It is filed as cell-based, human. Particulars: 24 hours; for AMPK activation effect 50 uM (%) / AMPK activation effect 10 uM (%): relative to untreated cells. The essentials:
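Human MCF7 breast cancer cells treated 24 h with compound at 5, 10 and 50 μM; metformin hydrochloride (0.05-10 mM) as control. AMPKα Thr172 phosphorylation measured in 20 μg lysate by immunoassay; AC150 (concentration giving 150% activation) calculated from concentration curves, with activation also given at 10 and 50 μM.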

In a further data set the test system is HCT116 cells. In words: Measurement of effect of inhibiting cancer cell proliferation (MTT). To be noted: Homo sapiens; for inhibition at 100 µM: HCT-116, 100 uM, 48 hours, read-out: Cell Growth Inhibition (%) at 100 uM; for GI50: HCT-116, 48 hours. It is filed as cell-based.

Consider `Cl.N=C(NCc1ccc(Cl)cc1)NC(=N)N1CCCCCC1` [Example 33, N1-azepane-N5-(4-chloro)benzyl biguanide hydrochloride], for which the melting point fell in the range of 222 to 223 °C. Further, in the data set with AMPKα, the “AMPK activation effect 50 uM (%)” value was 443% and the “AC150 (concentration at which AMPK activation reached 150%)” value came out at 1.2 µM. Moreover, in the data set with HCT116 cells, the inhibition at 100 µM came to 25.3% and the concentration for 50% growth inhibition (GI50) amounted to 4.9 µM.
`Cl.N=C(NC(=N)N1CCCCCC1)NC1CCCCCC1` [Example 19, N1-azepane-N5-cycloheptyl biguanide hydrochloride] gave a melting point of 237 to 238 °C. In addition, in the data set with AMPKα, the “AMPK activation effect 10 uM (%)” value is 213%, the “AMPK activation effect 50 uM (%)” value amounted to 325% and the “AC150 (concentration at which AMPK activation reached 150%)” value was 5.6 µM. Moreover, in the data set with HCT116 cells, the inhibition at 100 µM was 94.7% and the GI50 is 35.7 µM.
Molecule `Cl.N=C(NCc1ccc(F)c(OC(F)(F)F)c1)NC(=N)N1CCCCC1` [Example 48, N1-piperidine-N5-(4-fluoro-3-trifluoromethoxy)benzyl biguanide hydrochloride] showed a melting point of 233 to 235 °C. Besides, in the data set with AMPKα, the “AMPK activation effect 10 uM (%)” value came to 244% and the “AC150 (concentration at which AMPK activation reached 150%)” value was determined as 18.2 µM. In addition, in the data set on HCT116 cells, the inhibition at 100 µM turned out to be 96.4% and the GI50 is 13.4 µM.
Turning to `CCCCNC(=N)NC(=N)N1CCCCC1.Cl` [Example 11, N1-piperidine-N5-butyl biguanide hydrochloride], the melting point lay in the range of 113 to 114 °C. Further, in the data set on AMPKα, the “AMPK activation effect 50 uM (%)” value is listed as 130% and the “AC150 (concentration at which AMPK activation reached 150%)” value is above 50 µM. For the same molecule, in the data set on HCT116 cells, the inhibition at 100 µM worked out at 42.7% and the GI50 was above 100 µM.
For the molecule `Cl.N=C(NC(=N)N1CCCCCC1)NC1CCCC1` [Example 15, N1-azepane-N5-cyclopentyl biguanide hydrochloride], the melting point lay within 224 to 225 °C. Moreover, in the data set on AMPKα, the “AMPK activation effect 10 uM (%)” value was 174%, the “AMPK activation effect 50 uM (%)” value was determined as 291% and the “AC150 (concentration at which AMPK activation reached 150%)” value is 7.0 µM. Further, in the data set on HCT116 cells, the inhibition at 100 µM amounted to 27.9% and the GI50 was above 100 µM.
`Cl.N=C(NCc1cccnc1)NC(=N)N1CCCC1` [Example 20, N1-pyrrolidine-N5-(pyridine-3-ylmethyl)biguanide hydrochloride] yielded a melting point of 201 to 203 °C. Besides, in the data set with AMPKα, the “AMPK activation effect 10 uM (%)” value is on record as 71%, the “AMPK activation effect 50 uM (%)” value is 89% and the “AC150 (concentration at which AMPK activation reached 150%)” value was above 50 µM. Further, in the data set with HCT116 cells, the inhibition at 100 µM was 9.2% and the 50% growth inhibitory concentration (GI50) is above 100 µM.
`Cl.N=C(NCCc1ccc(F)cc1)NC(=N)N1CCCCCC1` [Example 60, N1-azepane-N5-((4-fluoro)phenethyl)biguanide hydrochloride] displayed a melting point of 211 to 212 °C. Moreover, in the data set on AMPKα, the “AMPK activation effect 10 uM (%)” value is reported as 744%, the “AMPK activation effect 50 uM (%)” value came out at 721% and the “AC150 (concentration at which AMPK activation reached 150%)” value is 0.7 µM. Further, in the data set with HCT116 cells, the inhibition at 100 µM came to 73.7% and the GI50 stood at 22.4 µM.
As for `Cl.N=C(NCCc1ccccc1)NC(=N)N1CCCCC1` [Example 58, N1-piperidine-N5-(phenethyl)biguanide hydrochloride], the melting point was in the range of 235 to 237 °C. Also, in the data set with AMPKα, the “AMPK activation effect 10 uM (%)” value is listed as 167%, the “AMPK activation effect 50 uM (%)” value came out at 388% and the “AC150 (concentration at which AMPK activation reached 150%)” value turned out to be 6.4 µM. Further, in the data set on HCT116 cells, the inhibition at 100 µM came out at 32.3% and the GI50 worked out at 43.2 µM.
Consider `Cc1ccc(CNC(=N)NC(=N)N2CCCCC2)cc1.Cl` [Example 27, N1-piperidine-N5-(4-methyl)benzyl biguanide hydrochloride], for which the melting point was 241 to 243 °C. Besides, in the data set on AMPKα, the “AMPK activation effect 10 uM (%)” value worked out at 435%, the “AMPK activation effect 50 uM (%)” value turned out to be 947% and the “AC150 (concentration at which AMPK activation reached 150%)” value is 2.3 µM. Further, in the data set with HCT116 cells, the inhibition at 100 µM was found to be 64.9% and the GI50 came out at 70.5 µM.
For the molecule `Cl.N=C(NCc1c(F)cccc1F)NC(=N)N1CCCCC1` [Example 51, N1-piperidine-N5-(2,6-difluoro)benzyl biguanide hydrochloride], the melting point is 229 to 232 °C. Also, in the data set with AMPKα, the “AMPK activation effect 10 uM (%)” value was 179% and the “AC150 (concentration at which AMPK activation reached 150%)” value amounted to 2.1 µM. In the data set on HCT116 cells, the inhibition at 100 µM was found to be 96.8% and the GI50 is above 100 µM.
